# Reference: ChEMBL document CHEMBL1143297, “Synthesis and CHK1 inhibitory potency of Hymenialdisine analogues” (Bioorg Med Chem Lett, 2009)
# The source made the active and inactive calls. The rule behind the calls is not given here.
# Molecular target: T1, NUAK family SNF1-like kinase 1 (Homo sapiens) (UniProt O60285)
# T1 sequence (whole entry): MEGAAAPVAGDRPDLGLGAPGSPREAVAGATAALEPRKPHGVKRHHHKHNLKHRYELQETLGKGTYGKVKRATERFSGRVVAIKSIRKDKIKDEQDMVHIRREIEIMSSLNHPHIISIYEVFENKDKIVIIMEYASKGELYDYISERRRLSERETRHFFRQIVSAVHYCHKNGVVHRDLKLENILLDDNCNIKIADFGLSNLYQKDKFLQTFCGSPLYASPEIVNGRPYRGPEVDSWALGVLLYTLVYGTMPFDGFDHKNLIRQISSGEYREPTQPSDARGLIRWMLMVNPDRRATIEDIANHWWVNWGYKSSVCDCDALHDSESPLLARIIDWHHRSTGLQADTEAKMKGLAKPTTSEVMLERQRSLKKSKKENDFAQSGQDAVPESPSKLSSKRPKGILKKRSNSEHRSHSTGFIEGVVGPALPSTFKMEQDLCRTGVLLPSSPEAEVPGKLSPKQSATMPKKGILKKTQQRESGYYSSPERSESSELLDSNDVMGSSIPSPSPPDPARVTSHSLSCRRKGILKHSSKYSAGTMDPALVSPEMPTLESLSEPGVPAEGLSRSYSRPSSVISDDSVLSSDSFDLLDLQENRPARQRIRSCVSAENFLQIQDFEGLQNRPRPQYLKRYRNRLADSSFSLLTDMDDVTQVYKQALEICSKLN
# Experiment: Inhibition of ARK5
row,Activity,Structure (SMILES)
1,Active,NC1=NC(=O)/C(=C2\CCNC(=O)c3[nH]c4c(Br)csc4c32)N1

# Molecular target: Glycogen synthase kinase-3 beta (Homo sapiens) (UniProt P49841)
# Sequence (P49841 whole entry, looked up): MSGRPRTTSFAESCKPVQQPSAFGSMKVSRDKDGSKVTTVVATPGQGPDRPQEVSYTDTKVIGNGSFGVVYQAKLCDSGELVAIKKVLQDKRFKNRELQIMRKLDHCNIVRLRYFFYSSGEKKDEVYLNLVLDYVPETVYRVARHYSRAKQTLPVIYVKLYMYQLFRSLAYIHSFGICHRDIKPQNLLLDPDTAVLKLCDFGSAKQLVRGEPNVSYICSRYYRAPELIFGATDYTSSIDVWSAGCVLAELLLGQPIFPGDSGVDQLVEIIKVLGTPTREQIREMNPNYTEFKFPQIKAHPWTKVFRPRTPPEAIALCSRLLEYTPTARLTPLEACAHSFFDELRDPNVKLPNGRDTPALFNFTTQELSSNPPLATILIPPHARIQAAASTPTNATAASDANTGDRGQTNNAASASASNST
# Experiment: Inhibition of GSK3-beta
row,Activity,Structure (SMILES)
1,Active,NC1=NC(=O)/C(=C2\CCNC(=O)c3[nH]c4c(Br)csc4c32)N1

# Molecular target: Serine/threonine-protein kinase SIK1 (Homo sapiens) (UniProt P57059)
# Sequence (P57059 whole entry): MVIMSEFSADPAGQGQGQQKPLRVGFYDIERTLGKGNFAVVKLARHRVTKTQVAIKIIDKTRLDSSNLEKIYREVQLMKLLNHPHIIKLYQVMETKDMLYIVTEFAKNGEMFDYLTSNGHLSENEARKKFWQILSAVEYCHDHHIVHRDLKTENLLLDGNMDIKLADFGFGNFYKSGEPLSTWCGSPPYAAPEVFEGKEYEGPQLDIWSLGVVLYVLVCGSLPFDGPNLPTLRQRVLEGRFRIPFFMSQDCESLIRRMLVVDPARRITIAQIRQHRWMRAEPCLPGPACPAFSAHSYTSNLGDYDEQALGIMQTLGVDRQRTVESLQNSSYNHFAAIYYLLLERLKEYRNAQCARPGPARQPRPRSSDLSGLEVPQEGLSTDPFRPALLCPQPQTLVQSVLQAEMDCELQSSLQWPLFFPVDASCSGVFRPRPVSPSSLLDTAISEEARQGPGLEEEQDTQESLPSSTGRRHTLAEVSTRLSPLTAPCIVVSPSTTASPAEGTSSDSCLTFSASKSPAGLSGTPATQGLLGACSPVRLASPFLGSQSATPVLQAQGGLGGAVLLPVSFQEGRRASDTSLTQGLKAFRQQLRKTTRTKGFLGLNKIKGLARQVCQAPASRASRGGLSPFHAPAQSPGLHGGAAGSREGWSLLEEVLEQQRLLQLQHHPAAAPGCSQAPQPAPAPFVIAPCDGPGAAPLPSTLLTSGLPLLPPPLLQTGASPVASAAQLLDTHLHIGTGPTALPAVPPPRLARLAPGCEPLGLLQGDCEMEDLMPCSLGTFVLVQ
# Experiment: Inhibition of SIK
row,Activity,Structure (SMILES)
1,Active,NC1=NC(=O)/C(=C2\CCNC(=O)c3[nH]c4c(Br)csc4c32)N1

# Molecular target: Receptor-type tyrosine-protein kinase FLT3 (Homo sapiens) (UniProt P36888)
# Sequence (P36888 whole entry): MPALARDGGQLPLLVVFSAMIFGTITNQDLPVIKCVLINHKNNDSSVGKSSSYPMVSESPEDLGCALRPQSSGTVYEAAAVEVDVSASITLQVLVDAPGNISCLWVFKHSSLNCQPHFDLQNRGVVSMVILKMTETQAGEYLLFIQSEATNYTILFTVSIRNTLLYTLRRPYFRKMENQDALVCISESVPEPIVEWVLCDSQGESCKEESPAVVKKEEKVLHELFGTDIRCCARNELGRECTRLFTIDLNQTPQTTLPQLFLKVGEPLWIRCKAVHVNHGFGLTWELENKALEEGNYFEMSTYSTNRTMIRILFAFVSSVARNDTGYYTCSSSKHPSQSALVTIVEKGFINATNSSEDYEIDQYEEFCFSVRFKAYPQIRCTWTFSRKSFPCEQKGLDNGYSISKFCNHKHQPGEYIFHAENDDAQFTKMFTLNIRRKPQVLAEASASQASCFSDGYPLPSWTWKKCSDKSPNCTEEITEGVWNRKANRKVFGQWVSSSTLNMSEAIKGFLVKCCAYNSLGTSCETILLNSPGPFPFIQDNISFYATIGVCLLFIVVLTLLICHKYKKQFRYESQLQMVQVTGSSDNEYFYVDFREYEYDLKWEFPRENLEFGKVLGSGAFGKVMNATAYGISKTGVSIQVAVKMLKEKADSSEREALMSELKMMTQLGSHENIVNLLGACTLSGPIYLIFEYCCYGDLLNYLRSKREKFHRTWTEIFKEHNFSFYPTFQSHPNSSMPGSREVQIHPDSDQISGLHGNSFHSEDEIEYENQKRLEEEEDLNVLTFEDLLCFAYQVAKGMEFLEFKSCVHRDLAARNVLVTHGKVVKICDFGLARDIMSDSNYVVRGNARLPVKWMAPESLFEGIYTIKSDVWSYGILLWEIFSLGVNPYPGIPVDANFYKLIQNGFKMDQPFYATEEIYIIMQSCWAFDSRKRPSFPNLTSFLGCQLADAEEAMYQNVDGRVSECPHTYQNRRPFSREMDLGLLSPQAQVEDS
# Experiment: Inhibition of FLT3
row,Activity,Structure (SMILES)
1,Active,NC1=NC(=O)/C(=C2\CCNC(=O)c3[nH]c4c(Br)csc4c32)N1

# Molecular target: T2, Serine/threonine-protein kinase Chk1 (Homo sapiens, UniProt O14757)
# T2 sequence (O14757 whole entry): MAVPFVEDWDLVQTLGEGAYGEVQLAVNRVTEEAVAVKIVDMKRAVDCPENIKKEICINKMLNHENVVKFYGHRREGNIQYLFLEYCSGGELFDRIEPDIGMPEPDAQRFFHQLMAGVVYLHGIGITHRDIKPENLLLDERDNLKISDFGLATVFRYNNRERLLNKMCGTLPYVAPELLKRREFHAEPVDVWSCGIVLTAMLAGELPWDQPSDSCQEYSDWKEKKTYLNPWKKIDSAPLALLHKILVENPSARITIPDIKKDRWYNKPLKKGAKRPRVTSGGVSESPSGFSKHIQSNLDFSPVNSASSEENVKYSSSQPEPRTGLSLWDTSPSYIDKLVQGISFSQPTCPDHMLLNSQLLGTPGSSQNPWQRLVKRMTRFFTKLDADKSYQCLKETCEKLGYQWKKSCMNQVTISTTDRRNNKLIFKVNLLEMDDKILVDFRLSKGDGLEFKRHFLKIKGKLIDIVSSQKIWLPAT
# Experiment: Inhibition of CHK1
row,Structure (SMILES),IC50 [nM]
1,O=C(O)CNC1=NC(=O)/C(=C2\CCNC(=O)c3[nH]c4c(Br)csc4c32)N1,260
2,NC1=NC(=O)/C(=C2\CCNC(=O)c3[nH]c4c(-c5ccccc5)csc4c32)N1,1300
3,Nc1nc(C2=C3C(=Nc4ccccc43)C(=O)NCC2)c(O)[nH]1,470
4,COc1ccc(Cn2c3c(c4scc(Br)c42)/C(=C2\NC(N)=NC2=O)CCNC3=O)cc1,> 10000
5,O=C1N=C(NCCO)N/C1=C1/CCNC(=O)c2[nH]c3ccsc3c21,1700
6,O=C1N=C(NCCO)N/C1=C1/CCNC(=O)c2[nH]c3c(Br)csc3c21,280
7,NC1=NC(=O)/C(=C2\CCNC(=O)c3[nH]c4c(-c5ccccc5)csc4c32)S1,> 10000
8,NC1=NC(=O)/C(=C2\CCNC(=O)c3[nH]c4c(sc5ccccc54)c32)S1,> 10000
9,NC1=NC(=O)/C(=C2\CCNC(=O)c3[nH]c4ccsc4c32)S1,180
10,Cn1c2c(c3sccc31)/C(=C1\NC(N)=NC1=O)CCNC2=O,> 10000
11,NC1=NC(=O)/C(=C2\CCNC(=O)c3[nH]c4c(Br)csc4c32)S1,190

# Further lines, results first:
row,IC50 [nM],Structure (SMILES)
1,300,NC1=NC(=O)/C(=C2\CCNC(=O)c3[nH]c4cc(Cl)sc4c32)N1
2,1900,NC1=NC(=O)/C(=C2\CCNC(=O)c3[nH]c(Br)cc32)N1 [HYMENIALDISINE]
3,330,NC1=N/C(=C2/CCNC(=O)c3[nH]ccc32)C(=O)N1 [DEBROMOHYMENIALDISINE]
4,150,NC(=O)c1csc2c3c([nH]c12)C(=O)NCC/C3=C1/NC(N)=NC1=O
5,29,N#Cc1csc2c3c([nH]c12)C(=O)NCC/C3=C1/NC(N)=NC1=O
6,14,NC1=NC(=O)/C(=C2\CCNC(=O)c3[nH]c4c(Br)csc4c32)N1
7,460,NC1=NC(=O)/C(=C2\CCNC(=O)c3[nH]c4cc(Br)sc4c32)N1
8,230,NC1=NC(=O)/C(=C2\CCNC(=O)c3[nH]c4c(sc5ccccc54)c32)N1
9,150,NC1=NC(=O)/C(=C2\CCNC(=O)c3[nH]c4ccsc4c32)N1
10,100,NC1=NC(=O)/C(=C2\CCNC(=O)c3[nH]c(Br)c(Br)c32)N1
11,890,NC1=NC(=O)/C(=C2\CCNC(=O)c3[nH]c4c(Cl)c(Cl)sc4c32)N1
12,140,NC1=NC(=O)/C(=C2\CCNC(=O)c3[nH]c4c(Cl)csc4c32)N1
